Columns and labels:
[1] = biological target: purified human autoBACE-2 (Homo sapiens, UniProt Q9Y5Z0); assay: BACE-2 Assay (BACE-HTRF assay); format: biochemical; details: Ki calculated from IC50 using the Cheng-Prusoff equation; QSY7-EISEVNLDAEFC-Eu-amide substrate, pH 5.0; read-out: BACE2 Ki
Experimental: DMSO is present at 5% final concentration in the assay. Following laser excitation of sample wells at 320 nm, the fluorescence signal at 620 nm is collected for 400 ms following a 50 μs delay on a RUBYstar HTRF plate reader (BMG Labtechnologies). Raw RFU data is normalized to maximum (1.0 nM BACE/DMSO) and minimum (no enzyme/DMSO) RFU values. […] The Ki values are calculated from the IC50 using the Cheng-Prusoff equation.

[2] = biological target: soluble human BACE1 catalytic domain (Homo sapiens (Human), UniProt P56817); assay: BACE1 HTRF FRET Assay; format: biochemical; details: Ki calculated from IC50 using the Cheng-Prusoff equation; QSY7-APPswe-Eu substrate, pH 5.0
Excerpt: Reagents: Na^+-Acetate pH 5.0; 1% Brij-35; Glycerol; Dimethyl Sulfoxide (DMSO); Recombinant human soluble BACE1 catalytic domain (>95% pure); APP Swedish mutant peptide substrate (QSY7-APP^swe-Eu): QSY7-[…]-Europium-amide (SEQ ID 1).
A homogeneous time-resolved FRET assay can be used to determine IC50 values for inhibitors of the soluble human BACE1 catalytic domain. This assay monitors the increase of 620 nm fluorescence that resulted from BACE1 cleavage of an APPswedish APP^swe mutant peptide FRET substrate (QSY7-[…]-Europium-amide (SEQ ID 1)). This substrate contains an N-terminal QSY7 moiety that serves as a quencher of the C-terminal Europium fluorophore (620 nm Em). […] Inhibition of BACE1 cleavage of the QSY7-APP^swe-Eu substrate by inhibitors is manifested as a suppression of 620 nm fluorescence.
Varying concentrations of inhibitors at 3× the final desired concentration in a volume of 10 ul are preincubated with purified human BACE1 catalytic domain (3 nM in 10 μl) for 30 minutes at 30° C. in reaction buffer containing 20 mM Na-Acetate pH 5.0, 10% glycerol, 0.1% Brij-35 and 7.5% DSMO. Reactions are initiated by addition of 10 μl of 600 nM QSY7-APP^swe-Eu substrate (200 nM final) to give a final reaction volume of 30 μl in a 384 well Nunc HTRF plate. The reactions are incubated at 30° C. for 1.5 hours. The 620 nm fluorescence is then read on a Rubystar HTRF plate reader (BMG Labtechnologies) using a 50 millisecond delay followed by a 400 millisecond acquisition time window. Inhibitor IC50 values are derived from non-linear regression analysis of concentration response curves.

Chain of soluble human BACE1 catalytic domain (P56817 75-416): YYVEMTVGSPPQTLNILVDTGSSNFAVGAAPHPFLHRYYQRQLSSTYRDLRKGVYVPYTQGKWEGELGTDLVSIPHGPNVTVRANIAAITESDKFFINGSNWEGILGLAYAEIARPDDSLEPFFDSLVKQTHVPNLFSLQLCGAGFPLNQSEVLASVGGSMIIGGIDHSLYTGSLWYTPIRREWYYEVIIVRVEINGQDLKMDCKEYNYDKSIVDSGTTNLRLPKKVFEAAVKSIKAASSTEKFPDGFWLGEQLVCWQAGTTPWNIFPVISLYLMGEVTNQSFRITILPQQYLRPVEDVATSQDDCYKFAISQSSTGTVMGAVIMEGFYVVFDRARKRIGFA
Chain of purified human autoBACE-2 (Q9Y5Z0 63-518 limits assumed): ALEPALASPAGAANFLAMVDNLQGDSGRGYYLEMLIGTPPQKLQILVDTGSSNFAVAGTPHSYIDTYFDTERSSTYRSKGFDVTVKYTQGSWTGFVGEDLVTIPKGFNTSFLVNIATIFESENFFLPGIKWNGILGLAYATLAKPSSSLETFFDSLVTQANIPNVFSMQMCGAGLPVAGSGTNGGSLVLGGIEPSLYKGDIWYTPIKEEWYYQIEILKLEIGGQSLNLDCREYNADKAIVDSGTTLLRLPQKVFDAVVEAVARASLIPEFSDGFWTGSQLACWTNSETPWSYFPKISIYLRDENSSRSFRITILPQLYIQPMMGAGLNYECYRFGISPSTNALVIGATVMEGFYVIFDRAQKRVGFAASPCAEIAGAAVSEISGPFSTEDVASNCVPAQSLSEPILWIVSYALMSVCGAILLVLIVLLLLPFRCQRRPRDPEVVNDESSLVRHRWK

Ki [1]: 44 nM
Ki [2]: 33 nM
Structure (SMILES): COc1ccc(C(=O)Nc2ccc(F)c([C@]3(C)CN(C)S(=O)(=O)C(C)(C)C(=N)N3)c2)nc1 [Example 6, N-{4-fluoro-3-[(4R)-6-imino-2,4,7,7-tetramethyl-1,1-dioxido-1,2,5-thiadiazepan-4-yl]phenyl}-5-methoxypyridine-2-carboxamide]

From US9745324B2, “Iminothiadiazepane dioxide compounds as BACE inhibitors, compositions, and their use” (Merck Sharp & Dohme Corp., priority 2013, dated 2017)
